Measured values published in patent US10071081B2, “Compositions of 1,2,4-oxadiazole benzoic acid compounds and methods for their use” (PTC Therapeutics, Inc., priority 2003, dated 2018).
Counter-ions that a name gives are not always drawn.

Test system: luciferase reporter construct containing a UGA premature termination codon
Test: cell-based luciferase reporter assay
Parameters: species or system Human; key to Activity: *****: both extremely high potency and extremely high efficacy of protein synthesis; ****: extremely high potency of protein synthesis and very high efficacy; ****: very high potency of protein synthesis and extremely high efficacy; ***: both very high potency and very high efficacy of protein synthesis; **: very high potency of protein synthesis and significant efficacy; **: significant potency of protein synthesis and very high efficacy; *: significant potency and efficacy of protein synthesis
Settings: ranking combining potency and efficacy of protein synthesis; UGA luciferase reporter stably transfected in 293T Human Embryonic Kidney cells
Method: Activity measurements in Table I were performed in a cell-based luciferase reporter assay (as described in Section 4.2) comprising a luciferase reporter construct containing a UGA premature termination codon that was stably transfected in 293T Human Embryonic Kidney cells. A small molecule, 3-[3-(4-Isopropyl-phenyl)-2,5-dioxo-imidazolidin-1-yl]-benzoic acid, known to allow readthrough of premature termination codons was used was used as an internal standard. Activity measurements are based on the qualitative relation between the minimum concentration of compound required to produce a given protein in a cell (potency) and the maximum amount of protein produced by the cell (efficacy). Potency and efficacy activities are ranked as either extremely high, very high or significant. The combination of these activities is used to determine the activity ranking.
Two assays were developed for use in high throughput screens to identify small molecules that promote nonsense suppression. Each assay utilized luciferase because it is a functional reporter gene assay (light is only produced if the protein is functional) and it is extremely sensitive (Light intensity is proportional to luciferase concentration in the nM range). The first assay is a cell-based luciferase reporter assay and the second is a biochemical assay consisting of rabbit reticulocyte lysate and a nonsense-containing luciferase reporter mRNA. In the cell-based assay, a luciferase reporter construct containing a UGA premature termination codon was stably transfected in 293T Human Embryonic Kidney cells. In the biochemical assay, mRNA containing a UGA premature termination codon was used as a reporter in an in vitro translation reaction using rabbit reticulocyte lysate supplemented with tRNA, hemin, creatine kinase, amino acids, KOAc, Mg(OAc)2, and creatine phosphate. […] Synthetic mRNA was prepared in vitro using the T7 promoter and the MegaScript in vitro transcription kit (Ambion).
To determine whether compounds also function in vivo, a stable cell line harboring the UGA nonsense-containing luciferase gene was treated with selected compounds. Cells were grown in standard medium supplemented with 1% penicillin-streptomycin (P/S) and 10% fetal bovine serum (FBS) to 70% confluency and split 1:1 the day before treatment. On the following day, cells were trypsinized and 40,000 cells were added to each well of a 96-well tissue culture dish. Serial dilutions of each compound were prepared to generate a six-point dose response curve spanning 2 logs (30 μM to 0.3 μM). The final concentration of the DMSO solvent remained constant at 1% in each well. Cells treated with 1% DMSO served as the background standard, and cells treated with gentamicin served as a positive control.

SMILES	Activity
COc1ccc(Cc2nc(-c3cccc(C(=O)O)c3)no2)cc1 [Compound 61, 3-[5-(4-Methoxy-benzyl)-[1,2,4]oxadiazol-3-yl]-benzoic acid]	**
O=C(O)c1cccc(-c2noc(-c3ccco3)n2)c1 [Compound 21, 3-(5-Furan-2-yl-[1,2,4]oxadiazol-3-yl)-benzoic acid]	****
[N-]=[N+]=Nc1ccc(-c2nc(-c3cccc(C(=O)O)c3)no2)cc1 [Compound 94, 3-[5-(4-Azido-phenyl)-[1,2,4]oxadiazol-3-yl]-benzoic acid]	*****
Cc1cccc(-c2nc(-c3cccc(C(=O)O)c3)no2)c1 [Compound 40, 3-(5-m-Tolyl-[1,2,4]oxadiazol-3-yl)-benzoic acid]	*****
CCc1ccc(-c2nc(-c3cccc(C(=O)O)c3)no2)cc1 [Compound 38, 3-[5-(4-Ethyl-phenyl)-[1,2,4]oxadiazol-3-yl]-benzoic acid]	*****
O=C(O)c1cccc(-c2noc(-c3ccc(Cl)cc3F)n2)c1 [Compound 73, 3-[5-(4-Chloro-2-fluoro-phenyl)-[1,2,4]oxadiazol-3-yl]-benzoic acid]	****
O=C(O)c1cccc(-c2noc(-c3cccc(OC(F)(F)F)c3)n2)c1 [Compound 47, 3-[5-(3-Trifluoromethoxy-phenyl)-[1,2,4]oxadiazol-3-yl]-benzoic acid]	****
O=C(O)c1cccc(-c2noc(-c3ccc(OCc4ccccc4)cc3)n2)c1 [Compound 95, 3-[5-(4-Benzyloxy-phenyl)-[1,2,4]oxadiazol-3-yl]-benzoic acid]	*
COC(=O)c1cccc(-c2noc(-c3ccc(F)cc3)n2)c1 [Compound 79, 3-[5-(4-Fluoro-phenyl)-[1,2,4]oxadiazol-3-yl]-benzoic acid methyl ester]	***
O=C([O][Na+])c1cccc(-c2noc(-c3ccccc3F)n2)c1 [Compound 78, 3-[5-(2-Fluoro-phenyl)-[1,2,4]oxadiazol-3-yl]-benzoic acid sodium salt]	*****
O=C(O)c1cccc(-c2noc(C3CCCC3)n2)c1 [Compound 31, 3-(5-Cyclopentyl-[1,2,4]oxadiazol-3-yl)-benzoic acid]	****
CC(=O)N1CCC(c2nc(-c3cccc(C(=O)O)c3)no2)CC1 [Compound 64, 3-[5-(1-Acetyl-piperidin-4-yl)-[1,2,4]oxadiazol-3-yl]-benzoic acid]	*
COCCOCCOCCOCCOC(=O)c1cccc(-c2noc(-c3ccccc3F)n2)c1 [Compound 90, 3-[5-(2-Fluoro-phenyl)-[1,2,4]oxadiazol-3-yl]-benzoic acid 2-{2-[2-(2-methoxy-ethoxy)-ethoxy]-ethoxy}-ethyl ester]	**
O=C(O)c1cccc(-c2noc(-c3cccc(Cl)c3)n2)c1 [Compound 01, 3-[5-(3-Chloro-phenyl)-[1,2,4]oxadiazol-3-yl]-benzoic acid]	*****
COCCOC(=O)c1cccc(-c2noc(-c3ccccc3F)n2)c1 [Compound 87, 3-[5-(2-Fluoro-phenyl)-[1,2,4]oxadiazol-3-yl]-benzoic acid 2-methoxy-ethyl ester]	***
O=C(O)c1cccc(-c2noc(-c3ccc(N4CCOCC4)nc3)n2)c1 [Compound 83, 3-[5-(6-Morpholin-4-yl-pyridin-3-yl)-[1,2,4]oxadiazol-3-yl]-benzoic acid]	****
O=C(O)c1cccc(-c2noc(-c3ccccc3F)n2)c1 [Compound 28, 3-[5-(2-Fluoro-phenyl)-[1,2,4]oxadiazol-3-yl]-benzoic acid]	*****
O=C(O)c1cccc(-c2noc(-c3ccc(C(F)(F)F)cc3)n2)c1 [Compound 17, 3-[5-(4-Trifluoromethyl-phenyl)-[1,2,4]oxadiazol-3-yl]-benzoic acid]	*****

SMILES	Activity
Cc1ccsc1-c1nc(-c2cccc(C(=O)O)c2)no1 [Compound 50, 3-[5-(3-Methyl-thiophen-2-yl)-[1,2,4]oxadiazol-3-yl]-benzoic acid]	*****
C/C=C/c1nc(-c2cccc(C(=O)O)c2)no1 [Compound 30, 3-(5-Propenyl-[1,2,4]oxadiazol-3-yl)-benzoic acid]	****
O=C(O)c1cccc(-c2noc(-c3cccs3)n2)c1 [Compound 29, 3-(5-Thiophen-2-yl-[1,2,4]oxadiazol-3-yl)-benzoic acid]	****
O=C(O)c1cccc(-c2noc(C3CC3)n2)c1 [Compound 27, 3-(5-Cyclopropyl-[1,2,4]oxadiazol-3-yl)-benzoic acid]	****
O=C(O)c1ccc(F)c(-c2noc(-c3ccc(F)cc3)n2)c1 [Compound 71, 4-Fluoro-3-[5-(4-fluoro-phenyl)-[1,2,4]oxadiazol-3-yl]-benzoic acid]	*
COCCOCCOC(=O)c1cccc(-c2noc(-c3ccccc3F)n2)c1 [Compound 88, 3-[5-(2-Fluoro-phenyl)-[1,2,4]oxadiazol-3-yl]-benzoic acid 2-(2-methoxy-ethoxy)-ethyl ester]	**
CC(C)(C)c1nc(-c2cccc(C(=O)O)c2)no1 [Compound 22, 3-(5-tert-Butyl-[1,2,4]oxadiazol-3-yl)-benzoic acid]	*
O=C(O)c1cccc(-c2noc(-c3ccc(-c4ccccc4)cc3)n2)c1 [Compound 06, 3-(5-Biphenyl-4-yl-[1,2,4]oxadiazol-3-yl)-benzoic acid]	****
CN(C)c1cccc(-c2nc(-c3cccc(C(=O)O)c3)no2)c1 [Compound 66, 3-[5-(3-Dimethylamino-phenyl)-[1,2,4]oxadiazol-3-yl]-benzoic acid]	****
O=C(O)c1cccc(-c2noc(-c3ccc4nonc4c3)n2)c1 [Compound 23, 3-(5-Benzo[1,2,5]oxadiazol-5-yl-[1,2,4]oxadiazol-3-yl)-benzoic acid]	****
O=C(O)c1cccc(-c2noc(Cc3ccc(F)cc3)n2)c1 [Compound 48, 3-[5-(4-Fluoro-benzyl)-[1,2,4]oxadiazol-3-yl]-benzoic acid]	****
O=C(O)c1cccc(-c2noc(COc3ccc(Cl)cc3)n2)c1 [Compound 34, 3-[5-(4-Chloro-phenoxymethyl)-[1,2,4]oxadiazol-3-yl]-benzoic acid]	****
O=C(O)c1cccc(-c2noc(-c3ccncc3)n2)c1 [Compound 59, 3-(5-Pyridin-4-yl-[1,2,4]oxadiazol-3-yl)-benzoic acid]	***
CC(C)c1nc(-c2cccc(C(=O)O)c2)no1 [Compound 15, 3-(5-Isopropyl-[1,2,4]oxadiazol-3-yl)-benzoic acid]	****
O=C(O)c1cc(-c2noc(-c3ccc(F)cc3)n2)ccc1F [Compound 72, 2-Fluoro-5-[5-(4-fluoro-phenyl)-[1,2,4]oxadiazol-3-yl]-benzoic acid]	***
O=C(O)c1cccc(-c2noc(-c3ccc(-n4cccc4)cc3)n2)c1 [Compound 41, 3-[5-(4-Pyrrol-1-yl-phenyl)-[1,2,4]oxadiazol-3-yl]-benzoic acid]	****
COc1cccc(-c2nc(-c3cccc(C(=O)O)c3)no2)c1 [Compound 20, 3-[5-(3-Methoxy-phenyl)-[1,2,4]oxadiazol-3-yl]-benzoic acid]	****
